Data published in publication PMC7168207, “Dibasic Derivatives of Phenylcarbamic Acid as Prospective Antibacterial Agents Interacting with Cytoplasmic Membrane” (Antibiotics, 2020).
Where “and” joins values, the source holds several entries; their conditions need not be identical. Equal entries are not always repeated. Where two headings read alike, the source gives them in different places.

What was measured:
[1] = set-up: method as in PMID 30274224; conditions: isocratic RP-HPLC, extrapolated lipophilicity index; cited from earlier work
[2] = set-up: method as in PMID 30274224; conditions: cited from earlier work
[3] = test system: human monocytic leukemia THP-1 cells; assay: in vitro antiproliferative assay (WST-1); assay type: cell-based; conditions: Homo sapiens, THP-1, 24 h, read-out: Tox IC50
How it was run: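 THP-1 cells in serum-free RPMI 1640 treated with compounds (DMSO ≤0.1%) for 24 h at 37 °C, 5% CO2, triplicate; viability by WST-1 tetrazolium read-out. IC50 from dose-response curve.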

[4] = test system: S. aureus ATCC 29213 biofilm; assay: biofilm inhibition assay (crystal violet); assay type: cell-based, Staphylococcus aureus; conditions: ≥80% inhibition of biofilm formation; for MBIC80 (minimum biofilm inhibitory concentration): 48 h
Protocol: The ability of compounds 1f, 1g, and 1h to inhibit biofilm growth and destroy the matured biofilm of S. aureus ATCC 29213 was investigated. The inhibitory activity was studied by the method with crystal violet. The activity to disrupt matured biofilm was evaluated as a decrease of metabolic activity using the MTT assay.
The plates were inoculated by inoculum of S. aureus ATCC 29213 grown in TSB + 2% glucose to exponential phase. Before the inoculation of the plate, the original inoculum was diluted to 1 McFarland and then 1:100 in fresh TSB + 2% glucose, to reach the final concentrations in the wells of […]. […] The plates were incubated at 37 °C for 48 h. After incubation, the contents of the wells were removed, and the plates were washed three times by sterile PBS. After drying, 125 μL of 0.5% crystal violet was added to each well and the plates were stained at room temperature for 20 min. Then the dye was removed, and the plates were washed three times by sterile PBS. The colored biofilm was detached from the wells using 33% solution of acetic acid. The absorbance at 595 nm was measured. As a blank, a non-inoculated plate treated in the same way was used. […] The minimum biofilm inhibitory concentration was the lowest concentration of the compounds, which inhibited the growth of 80% bacteria compared to the growth control. The experiment was made in duplicate and repeated at least three times.

[5] = test system: E. faecalis ATCC 29212; assay: MIC, broth microdilution; assay type: cell-based, Enterococcus faecalis; conditions: Enterococcus faecalis, ATCC 29212 / ATCC 29213; EF = E. faecalis ATCC 29213
How it was run: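 Broth microdilution at 5 × 10^5 CFU/mL final inoculum, cation-adjusted Mueller–Hinton broth for staphylococci and brain heart infusion for enterococci, incubated aerobically overnight at 37 °C.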

[6] = test system: vancomycin-resistant enterococci VRE 368; assay: MIC, broth microdilution; assay type: cell-based, Enterococcus faecalis; conditions: Enterococcus, read-out: MICs
How it was run: (§1)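 Overnight colonies from blood agar were suspended in PBS to 0.5 McFarland and diluted to 5 × 10^5 CFU/mL final in wells. Staphylococci were tested in cation-adjusted Mueller–Hinton broth and enterococci in brain heart infusion.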

[7] = test system: vancomycin-resistant enterococci VRE 342B; assay: MIC, broth microdilution; assay type: cell-based, Enterococcus faecalis; conditions: Enterococcus, read-out: MICs
How it was run: as §1

[8] = test system: vancomycin-resistant enterococci VRE 725B; assay: MIC, broth microdilution; assay type: cell-based, Enterococcus faecalis; conditions: Enterococcus, read-out: MICs
How it was run: as §1

| MIC [5] | MIC ([6]; VRE2 = VRE 368) | MIC ([7]; VRE1 = VRE 342B) | MIC ([8]; VRE3 = VRE 725B) | SMILES | log kw [1] | γ (surface tension, relative surface activity) [2] | IC50 ([3]; THP-1 cells, WST-1, 24 h) | minimum biofilm inhibitory concentration relative to MIC against planktonic cells [4] | MBIC80 (minimum biofilm inhibitory concentration) [4] | IC50 [3] | MIC ([6]; VRE) | MIC ([7]; VRE) | MIC ([8]; VRE) |
| --- | --- | --- | --- | --- | --- | --- | --- | --- | --- | --- | --- | --- | --- |
| 32 µg/mL and 63.2 µM | 16 µg/mL and 31.6 µM | 16 µg/mL and 31.6 µM | 16 µg/mL and 31.6 µM | CCCCCOc1cccc(NC(=O)OC(CN(CCC)CCC)CN2CCCC2)c1.Cl.Cl (stereo not shown) [1f, 1-[3-(dipropylammonio)-2-({[3-(pentyloxy)phenyl]carbamoyl}-oxy)propyl]pyrrolidinium dichloride] | 4.6722 | 0.06285 N/m | 4.19 ± 0.54 µM | two-fold higher | 32 µg/mL |  |  |  |  |
| 16 µg/mL and 30.8 µM | 8 µg/mL and 15.4 µM | 8 µg/mL and 15.4 µM | 8 µg/mL and 15.4 µM | CCCCCCOc1cccc(NC(=O)OC(CN(CCC)CCC)CN2CCCC2)c1.Cl.Cl (stereo not shown) [1g, 1-[3-(dipropylammonio)-2-({[3-(hexyloxy)phenyl]carbamoyl}oxy)propyl]pyrrolidinium dichloride] | 4.9446 | 0.06105 N/m | 3.5 ± 0.31 µM | equal to minimum inhibitory concentration against planktonic cells | 8 µg/mL |  |  |  |  |
| 8 µg/mL and 15 µM | 4 µg/mL and 7.51 µM | 4 µg/mL and 7.51 µM | 4 µg/mL and 7.51 µM | CCCCCCCOc1cccc(NC(=O)OC(CN(CCC)CCC)CN2CCCC2)c1.Cl.Cl (stereo not shown) [1h, 1-[3-(Dipropylammonio)-2-({[3-(heptyloxy)phenyl]carbamoyl}oxy)propyl]pyrrolidinium dichloride] | 5.5384 | 0.05786 N/m | 3.67 ± 0.01 µM | equal to minimum inhibitory concentration against planktonic cells | 8 µg/mL |  |  |  |  |
|  |  |  |  | CN[C@H](CC(C)C)C(=O)N[C@H]1C(=O)N[C@@H](CC(N)=O)C(=O)N[C@H]2C(=O)N[C@H]3C(=O)N[C@H](C(=O)N[C@H](C(=O)O)c4cc(O)cc(O)c4-c4cc3ccc4O)[C@H](O)c3ccc(c(Cl)c3)Oc3cc2cc(c3O[C@@H]2O[C@H](CO)[C@@H](O)[C@H](O)[C@H]2O[C@H]2C[C@](C)(N)[C@H](O)[C@H](C)O2)Oc2ccc(cc2Cl)[C@H]1O [VAN, vancomycin, reference compound] |  |  |  |  |  | > 30 µM | 512 µg/mL and 353 µM | 512 µg/mL and 353 µM | 1020 µg/mL and 706 µM |
